How the values were obtained:
[1] = test system: mash bean seeds; assay: Combination of active ingredients: mash bean root development in open jars with ARC2 films; assay type: in vivo; details: 7% in ARC2 film
Procedure: In order to evaluate the efficacy of Thymol relative to another EO, and to see if combination could result in synergistic activity, an additional experiment was conducted using ARC2 polymer (Cloisite 15A 10 wt % nanoclay) with mash bean seeds in open jars. Cotton wool was placed in the jar as a substrate in the center of which the seeds were sown. Three types of EOs were incorporated into the ARC2 polymer films (7% Thymol, 7% pelargonic acid, and 3.5% Thymol/3.5% pelargonic acid) with a dimension of 1 cm width, 3 cm length, and 3 mm thickness were tested and compared to a reference sample (without EO). Each film was placed adjacent to the jar wall. Seeds were watered once a day for 14 weeks.

[2] = test system: Sorghum; assay: Greenhouse experiment using Sorghum and 5% Thymol, root clogging of SDI drippers; assay type: in vivo; details: for % Clogged drippers / Clogged drippers / Clean drippers: 2.5 months greenhouse; for roots accumulated on top of the pipe in the area of the drippers' holes: FIG. 7; for Clogged drippers / Clean drippers: number of drippers; for Clogged drippers: ARC1 film in pipe or Treflan pipe
Procedure: In order to confirm the results of Example 1 in a more agricultural settind and in a different pant variety, Sorghum seeds were grown in a TROPICO-type greenhouse (TOP Company), at Kibbutz Metzer (Israel) during the summer season, for 2.5 months.
Individual PP (polypropylene) cases were built for seed beds, with the dimensions of 40 cm height, 20 cm width, and 5 meters length. ARC1-based active films were inserted into PE SDI pipes as in Example 1, and activity of thymol as a root inhibitor was compared to that of TREFLAN chemical herbicide (positive control), as well as to herbicide free pipe used as a negative control.
The pipes were placed 15 cm above the bed's bottom, mimicking a buried drip irrigation situation at a realistic ‘field depth’ for the SDI system. Holes were drilled at the bed's edges to allow easy access to the initial and the last pipe and to enable simple irrigation and fertilization control.
The seed beds were filled with ‘Ram 8’-type (Tuff Merom Golan), a professional planting substrate, 80% coarse peat/20% coconut composition.
“Bulldozer”-type sorghum seeds, supplied by CTS Company, were sown. Sorghum is categorized as a classical field-growth plant and characterized by a robust and aggressive root system with secondary growth ability after ‘green’ harvesting without inflorescence.
The sowing process corresponded to field sowing. Eight seeds per meter were sown at 2.5 cm deep, with 12.5 cm sowing intervals.
Irrigation regime was determined differentially, taking into consideration climate data and irrigation type. During the first week from sowing, the irrigation carried out using sprinklers without fertilization. After sprouting and germination, the irrigation was performed through underground drip irrigation only, accompanied by proportional fertilization, “fertilizer-all”-type 17-10-27, with trace elements. The level of fertilizer in irrigation water was about 30 ppm nitrogen. In contrast to example 1, irrigation and fertilization regimes performed were minimal to create ‘starvation’ and cause the roots to aggressively migrate towards the drippers' holes in search of water and fertilizer.

[3] = test system: sweet corn seeds; assay: Bioassay of Thymol activity on plant health and development, sweet corn; assay type: in vivo; details: ARC2 film (7% Thymol) adjacent to box wall
Procedure: (§1) In order to determine the suitability of Thymol as an anti-root (AR) agent in a variety of agricultural settings, Thymol activity was tested on different seed types.
(§2) The experiment was conducted for two months during the spring with an ambient temperature of ±30° C. Plastic boxes of 30 cm length, 20 cm width, and 15 cm height were filled with German Kalsmann peat, coconut fiber, ventilation materials, and slow-release fertilizers as planting substrate.
(§3) Cucumber, tomato, beetroot, and sweet corn seeds were each sown in two boxes (8 boxes in total); one box of each seed type was used as a negative control and in the other box (experimental) an ARC2-based active film (Cloisite 15A 10 wt % nanoclay; 7% Thymol) was placed adjacent to the box wall to assess Thymol activity [FIG. 12]. The film folded in half, corresponding to the length and width dimensions of the box.
(§4) For each seed type, both boxes were placed outdoors according to the sun intensity the plant requires. Each seed type was given an appropriate amount of water evenly, using a can.

[4] = test system: tomato seeds; assay: Bioassay of Thymol activity on plant health and development, tomato; assay type: in vivo; details: ARC2 film (7% Thymol) adjacent to box wall
Procedure: as §1, §2, §3, §4

[5] = Quantitative analysis of Thymol concentration remaining in the film (extraction, Gibbs reagent, UV-visible); assay type: physicochemical
Procedure: The amount of Thymol remaining in the films immediately after processing and at the end of each experiment was determined by UV-visible 1650PC spectrophotometer (Shimadzu), through extraction. The procedure is suitable for different phenolic EOs and is based on Gibbs reagent (2,6-dichlorobenzoquinone 4-chloroimine).
Briefly, different Thymol-active films were cut to small pieces, weighed, and extracted by refluxing with 2-propanol at a ratio of 500 mg film/25 ml propanol, for 2 hours. To 100 ml volumetric flasks containing 10 ml of a standard Buffer solution of Boric Acid+Potassium Chloride, 1 ml of the extraction solution, 4 mL of 2-propanol, and 1 ml of Gibbs reagent solution was added. The solution was allowed to stand for 15 min to enable the reaction to occur fully. The resulting violet water-soluble dye has a maximum absorption at 590 nm wavelength. Thymol concentration retained in the film, as a proportion of the nominal concentration, was calculated from a calibration curve. Two replicates were measured for each standard.

[6] = test system: helianthus seeds; assay: Helianthus seeds in planters with 7% Thymol (ARC2 film in pipe); assay type: in vivo
Procedure: In order to evaluate the effect of increasing the amount of Thymol, an additional experiment was conducted using ARC2 polymer (Cloisite 15A 10 wt % nanoclay; 7% Thymol). The experiment was conducted on helianthus seeds during the summer season, temperature above 30° C., for two months.
Planter dimensions were 110 cm length, 10 cm width, and 15 cm height. The pipes were placed 5 cm from the planter base, where holes were drilled for drainage.
One planter contained negative control pipe, while ARC2-based active film (experimental) was inserted to pipe in experimental planters as in examples 1 and 2.
Potting soil for plant growth was a mixture of German Kalsmann peat, coconut fiber, ventilation materials, and slow-release fertilizers, mixed with Perlite.
Thirty seeds were sown in two columns at 1 cm depth and 7 cm intervals.
Irrigation cycle was set twice daily for three minutes.
As in previous examples, the number of seeds sown relative to the planter size was large and irrigation regime was minimal to increase the root-intrusion tendency.

[7] = test system: root growth; assay: Cumulative data from examples 1 through 4: Thymol concentration and root growth; assay type: in vivo; details: low concentrations; at higher concentrations anti-root activity
[8] = test system: cucumber seeds; assay: Bioassay of Thymol activity on plant health and development, cucumber; assay type: in vivo
Procedure: as §1, §2, §3, §4

[9] = test system: beetroot seeds; assay: Bioassay of Thymol activity on plant health and development, beetroot; assay type: in vivo; details: ARC2 film (7% Thymol) adjacent to box wall
Procedure: as §1, §2, §3, §4

[10] = test system: mash bean seeds; assay: Inhibition of root penetration in subsurface pipes by Thymol-active based film (5%), lab planters; assay type: in vivo
From the text: Holes were drilled at the bottom for water drainage. PE pipe was specially manufactured by METZERPLAS (Israel), with a coating that prevents diffusion of materials through the PE matrix. Pipe diameter 16 mm with a wall thickness of 0.9 mm. A VARDIT 16-type adjusted dripper was selected, with a flow rate of 1.2 liters/hour for each dripper spaced 20 cm apart across the pipes, which were placed 5 cm from the planter base. An ARC1-based active film (Cloisite 15 3% wt and Thymol 5%) was inserted to one pipe [FIG. 2] and its activity was compared with another pipe with no active agent, used as a negative control.
The planting substrate was Perlite mixed with Hydroton, and mash bean seeds were sown after surface-sterilization with 10% […], for 20 min, to avoid possible inhibition caused by toxins from fungi or bacteria. Seeds were then rinsed with an abundance of distilled water 20 g of seeds were sown 7 cm deep in each flowerbox.
A high ratio of seeds:volume was intentionally used to increase the chance of root intrusion.
Irrigation regimen was set at four times a day for ten minutes. The experiment was conducted in a lab, with light supplied 24 hours a day, and room temperature±25° C. After twenty days, the drippers were opened to examine whether the Thymol was able to function as an anti-root (AR) agent and protect the SDI pipe from root intrusion.

[11] = beds opened at end of experiment

CCCCCCCCC(=O)O [Pelargonic acid]
effect on root growth ([1]; after two weeks, FIG. 18): inhibitory effect on root growth compared to the reference sample, but the effect was less

Cc1ccc(C(C)C)c(O)c1 [Thymol]
% Clogged drippers ([2]; listed as Thymol 1): 0% | % Clogged drippers ([2]; listed as Thymol 2): 4.76% | roots accumulated on top of the pipe in the area of the drippers' holes [2, 11]: lower than that obtained for the negative control | effect on roots development / harm to the crop under cultivation ([2]; in vivo): less harmful to the crop under cultivation than Treflan | efficacy in deterring roots from dripper openings relative to Treflan ([2]; in vivo): roughly as effective as Treflan | Clogged drippers [2]: one | Clogged drippers ([2]; listed as Thymol 1): 0 | Clogged drippers ([2]; listed as Thymol 2): 1 | Clean drippers ([2]; listed as Thymol 1): 15 | Clean drippers ([2]; listed as Thymol 2): 20 | germination rate compared with control box [3]: faster | root inhibitory effect ([1]; after 3 weeks, FIG. 19): best root inhibitory effect | germination rate compared with control box [4]: faster | amount of Thymol remaining in the film ([5]; after 2 months in soil, film in pipe, welded outside or at a distance): around 5 % of the amount nominally incorporated in the film prior to processing | Thymol concentration in the film below which inhibitory activity decreases ([5]; initial concentration at the beginning of the manufacturing process): about 9 % of the initial concentration | Thymol concentration remaining in the film, sorghum experiment versus mash bean experiment ([5]; two and a half months (sorghum) vs two months (mash bean)): slightly higher | germination rate compared with negative control planter ([6]; ARC2 film (Cloisite 15A 10 wt %, 7% Thymol) in pipe): faster | number of helianthus flowers ([6]; after 55 days, control planter 19): 24 | drippers penetrated by roots ([6]; out of five drippers, end of experiment (two months), control three out of five): two | seedling growth rate compared with control planter ([6]; until plants reached maximum height): remained faster | concentration at which Thymol can stimulate root growth [7]: < 0.4 wt % | germination rate compared with control box ([8]; ARC2 film (7% Thymol) adjacent to box wall): faster | number of germinated seeds compared with control box ([8]; FIG. 13): greater | seedlings' growth rate compared with control box ([8]; FIG. 13, after 43 days): continued to be faster | time until 6 seeds germinated ([8]; FIG. 13, control box 17 days): 11 days | germination rate compared with control box [9]: faster | root penetration of drippers ([10]; drippers opened after twenty days, ARC1 film, Thymol 5%, in pipe): remained free of roots | number of germinated seeds compared with reference planter ([10]; first four days, ARC1-based active film (Cloisite 15 3% wt, Thymol 5%) inserted in pipe): greater | growth rate of roots and seedlings compared with reference planter ([10]; up to two weeks, ARC1 film, Thymol 5%, in pipe): faster

CCCN(CCC)c1c([N+](=O)[O-])cc(C(F)(F)F)cc1[N+](=O)[O-] [Treflan, trifluralin, reference compound]
% Clogged drippers [2]: 0% | soil moisture in proximity to drippers ([2]; beds opened at end of experiment, FIG. 6, compared with negative control): higher degree of moisture | roots accumulated on top of the pipe in the area of the drippers' holes [2, 11]: no root concentration areas are observed | root state of drippers ([2]; end of experiment): root-clean | Clean drippers [2]: 20 | Clogged drippers [2]: 0 | effect on roots development / harm to the crop under cultivation ([2]; subjective evidence): more aggressive and detrimental effect on roots development

Reference: patent US12089542B2, “Subsurface drip irrigation (SDI) lines enhanced with essential oils” (Metzerplas Cooperative Agricultural Organization Ltd., priority 2020, dated 2024)
